Here are results for nine molecules from patent US20150302167A1, “SYSTEM AND METHOD FOR DEVELOPMENT OF THERAPEUTIC SOLUTIONS” (CELLWORKS RESEARCH INDIA PRIVATE LIMITED, priority 2012, published 2015).

A short description of assay [1]: Published clinical trial data of RA drugs: ACR20/ACR50/ACR70 response, drug vs placebo. The assay is classed as in vivo, human. The settings on record: for ACR20 Diff. / ACR50 Diff. / ACR70 Diff.: Type: Diff. (drug minus placebo), * significant difference > 15%; for Highest Significant Clinical Disease Remission Score: highest ACR level with significant difference > 15% over placebo. From the text:
In another embodiment, American College of Rheumatoid (ACR) scoring system and DAS28 scoring system are used to determine the extent of improvement in the RA disease symptoms on treatment with a drug.
In another embodiment, the ACR scoring system involves three main scores: ACR20 score pertaining to 20% improvement in the disease, ACR50 score pertaining to 50% improvement in the disease and ACR70 score pertaining to 70% improvement in the disease. Clinically, the calculation of the ACR score is dependent on inputs from a patient Health Assessment Questionnaire (HAQ) and analysis of the percentage improvement in the RA disease phenotypes. […]

The conditions of assay [2]: Type: Drug; published clinical trial data; cited from earlier work.

Turning to DENOSUMAB, in assay [1], the “ACR20 Diff.” value was below 0%, the “ACR50 Diff.” value was below 0%, the “ACR70 Diff.” value is listed as below 0% and the “Highest Significant Clinical Disease Remission Score” value is reported as “Non”. In assay [2], the ACR20 is recorded as 23%, the ACR50 is 9% and the ACR70 is reported as 1%.
Take RITUXIMAB: in assay [1], the “ACR20 Diff.” value stood at 26%, the “ACR50 Diff.” value came out at 21%, the “ACR70 Diff.” value is on record as 15* % and the “Highest Significant Clinical Disease Remission Score” value is “ACR70 (ACR70 score pertaining to 70% improvement in the disease)”. Also, in assay [2], the ACR20 was 54%, the ACR50 is 34% and the ACR70 is recorded as 20%.
Consider `C[C@@H]1CCN(C(=O)CC#N)C[C@@H]1N(C)c1ncnc2[nH]ccc12` [TOFACITINIB], for which, in assay [1], the “ACR20 Diff.” value was found to be 66.5%, the “ACR50 Diff.” value came to 57.7%, the “ACR70 Diff.” value was 20* % and the “Highest Significant Clinical Disease Remission Score” value is listed as “ACR70 (ACR70 score pertaining to 70% improvement in the disease)”.
As for SECUKINUMAB, in assay [1], the “ACR20 Diff.” value is recorded as 23* %, the “ACR50 Diff.” value was found to be 12%, the “ACR70 Diff.” value was 0% and the “Highest Significant Clinical Disease Remission Score” value is listed as “ACR20 (ACR20 score pertaining to 20% improvement in the disease)”. In addition, in assay [2], the ACR20 is recorded as 54%, the ACR50 was 27% and the ACR70 is on record as 12%.
Regarding ETANERCEPT, in assay [1], the “ACR20 Diff.” value was determined as 15%, the “ACR50 Diff.” value stood at 29%, the “ACR70 Diff.” value is 28* % and the “Highest Significant Clinical Disease Remission Score” value was “ACR70 (ACR70 score pertaining to 70% improvement in the disease)”. In assay [2], the ACR20 is listed as 86%, the ACR50 is 71% and the ACR70 is 49%.
TOCILIZUMAB: in assay [1], the “ACR20 Diff.” value stood at 33%, the “ACR50 Diff.” value turned out to be 24%, the “ACR70 Diff.” value is 21* % and the “Highest Significant Clinical Disease Remission Score” value is listed as “ACR70 (ACR70 score pertaining to 70% improvement in the disease)”. Besides, in assay [2], the ACR20 is given as 74%, the ACR50 was 53% and the ACR70 was 37%.
As for `CN(Cc1cnc2nc(N)nc(N)c2n1)c1ccc(C(=O)N[C@@H](CCC(=O)O)C(=O)O)cc1` [METHOTREXATE], in assay [1], the “ACR20 Diff.” value stood at 20%, the “ACR50 Diff.” value is given as 15* %, the “ACR70 Diff.” value was determined as 5% and the “Highest Significant Clinical Disease Remission Score” value is recorded as “ACR50 (ACR50 score pertaining to 50% improvement in the disease)”. Also, in assay [2], the ACR20 is given as 46%, the ACR50 is given as 23% and the ACR70 is 9%.
As to ANAKINRA, in assay [1], the “ACR20 Diff.” value is 16* %, the “ACR50 Diff.” value was 9%, the “ACR70 Diff.” value is on record as 4% and the “Highest Significant Clinical Disease Remission Score” value is given as “ACR20 (ACR20 score pertaining to 20% improvement in the disease)”. In assay [2], the ACR20 is 38%, the ACR50 was 17% and the ACR70 is given as 6%.

B1: AMG714: RA drug with published clinical trial data, listed among various approved drugs (antibody, chains of the INN, looked up, V domains shown)
VH: EVQLVQSGAEVKKPGESLKISCKVSGYFFTTYWIGWVRQMPGKGLEYMGIIYPGDSDTRYSPSFQGQVTISADKSISTAYLQWSSLKASDTAMYYCARGGNWNCFDYWGQGTLVTVSS
VL: EIVLTQSPGTLSLSPGERATLSCRASQSVSSSYLAWYQQKPGQAPRLLIYGASRRATGIPDRFSGSGSGTDFTLTISRLEPEDFAVYYCQRYGSSHTFGQGTKLEIS
B1: in assay [1], the “ACR20 Diff.” value is recorded as 36* %, the “ACR50 Diff.” value is 0%, the “ACR70 Diff.” value was 0% and the “Highest Significant Clinical Disease Remission Score” value is recorded as “ACR20 (ACR20 score pertaining to 20% improvement in the disease)”. Further, in assay [2], the ACR20 was 62%, the ACR50 is 0% and the ACR70 was 0%.
